The conditions of the data set: Liquid, Ebulliometric method (Recirculating still).

Numbers after ± are expanded uncertainties.

Take `FC(C(F)(F)F)C(F)(F)F` [1,1,1,2,3,3,3-heptafluoropropane]: the vapor or sublimation pressure (in general, the pressure of vapour in equilibrium with the condensed phase) by setting is: (263.15 K) 132.4 ± 1.2 kPa; (278.15 K) 235.2 ± 1.2 kPa; (293.15 K) 389.4 ± 1.2 kPa; (308.15 K) 608.3 ± 1.2 kPa; (323.15 K) 912.1 ± 1.2 kPa.

For the compound `FC(F)C(F)(F)F` [pentafluoroethane], the “vapor or sublimation pressure” value is recorded as 482.4 ± 1.2 kPa (263.15 K); 782.1 ± 1.2 kPa (278.15 K); 1205.6 ± 1.3 kPa (293.15 K); 1773.2 ± 1.3 kPa (308.15 K); 2531.1 ± 1.3 kPa (323.15 K).

Consider `CCC` [propane], for which the “vapor or sublimation pressure” value is reported as 345.9 ± 1.2 kPa (263.15 K); 552.7 ± 1.2 kPa (278.15 K); 839.7 ± 1.2 kPa (293.15 K); 1217.2 ± 1.2 kPa (308.15 K); 1714.5 ± 1.3 kPa (323.15 K).

For the origin of these results see the NIST ThermoML archive (doi:10.1016/j.fluid.2009.09.008).
